How the values were obtained:
morningglory = experiment: Test B pre/postemergence morningglory; format: in vivo, Ipomoea hederacea; conditions: for Morningglory plant response rating: scale of 0 to 10 where 0 is no effect and 10 is complete control
Method in brief: (§1)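 Herbicidal effect was estimated by eye on a ten-point control scale after plants spent twelve to sixteen days in a greenhouse following soil or foliar treatment. Foliar sprays targeted plants at one to four leaves; all doses were formulated in a non-phytotoxic solvent with surfactant.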

soybean = experiment: Test B pre/postemergence soybean; format: in vivo, Glycine max; conditions: for Soybean plant response rating: scale of 0 to 10 where 0 is no effect and 10 is complete control
Method in brief: as §1

surinam grass = experiment: Test B pre/postemergence surinam grass; format: in vivo, Brachiaria decumbens; conditions: for B. signalgrass plant response rating: scale of 0 to 10 where 0 is no effect and 10 is complete control
Method in brief: as §1

bedstraw = experiment: Test B pre/postemergence bedstraw; format: in vivo, Galium aparine; conditions: for Bedstraw plant response rating: scale of 0 to 10 where 0 is no effect and 10 is complete control
Method in brief: as §1

rape = experiment: Test B pre/postemergence rape; format: in vivo, Brassica napus; conditions: for Rape plant response rating: scale of 0 to 10 where 0 is no effect and 10 is complete control
Method in brief: as §1

pigweed = experiment: Test B pre/postemergence pigweed; format: in vivo, Amaranthus retroflexus; conditions: for Redroot pigweed plant response rating: scale of 0 to 10 where 0 is no effect and 10 is complete control
Method in brief: as §1

velvetleaf = experiment: Test B pre/postemergence velvetleaf; format: in vivo, Abutilon theophrasti; conditions: for Velvetleaf plant response rating: scale of 0 to 10 where 0 is no effect and 10 is complete control
Method in brief: as §1

bamyardgrass = experiment: Test B flood test barnyardgrass; format: in vivo, Echinochloa crus-galli
Method in brief: (§2)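 Each value is a visual injury score relative to controls, with 10 meaning complete control and 0 no effect. Evaluation took place twelve to sixteen days after the 2-leaf-stage plants were treated and kept in the greenhouse.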

duck salad = experiment: Test B flood test duck salad; format: in vivo, Heteranthera limosa
Method in brief: as §2

cocklebur = experiment: Test B pre/postemergence cocklebur; format: in vivo, Xanthium strumarium; conditions: for Cocklebur plant response rating: scale of 0 to 10 where 0 is no effect and 10 is complete control
Method in brief: as §1

corn = experiment: Test B pre/postemergence corn; format: in vivo, Zea mays; conditions: for Corn plant response rating: scale of 0 to 10 where 0 is no effect and 10 is complete control
Method in brief: as §1

blackgrass = experiment: Test B pre/postemergence blackgrass; format: in vivo, Alopecurus myosuroides; conditions: for Blackgrass plant response rating: scale of 0 to 10 where 0 is no effect and 10 is complete control
Method in brief: as §1

sugar beet = experiment: Test B pre/postemergence sugar beet; format: in vivo, Beta vulgaris; conditions: for Sugarbeets plant response rating: scale of 0 to 10 where 0 is no effect and 10 is complete control
Method in brief: as §1

giant foxtail = experiment: Test B pre/postemergence giant foxtail; format: in vivo, Setaria faberii; conditions: for Giant foxtail plant response rating: scale of 0 to 10 where 0 is no effect and 10 is complete control
Method in brief: as §1

smallflower flatsedge = experiment: Test B flood test smallflower flatsedge; format: in vivo, Cyperus difformis
Method in brief: as §2

purple nutsedge = experiment: Test B pre/postemergence purple nutsedge; format: in vivo, Cyperus rotundus; conditions: for Nutsedge plant response rating: scale of 0 to 10 where 0 is no effect and 10 is complete control
Method in brief: as §1

[1] = Postemergence, Rate 125 g/ha, scale 0 to 10, 0 is no effect, 10 is complete control
[2] = Postemergence, Rate 250 g/ha, scale 0 to 10, 0 is no effect, 10 is complete control
[3] = Preemergence, Rate 62 g/ha, scale 0 to 10 (0 no effect, 10 complete control)
[4] = Rate 500 g/ha, Postemergence, scale 0 to 10, 0 no effect, 10 complete control
[5] = Rate 62 g/ha, flood test species, Pre-emergence, visual evaluation after twelve to sixteen days
[6] = Rate 125 g/ha, under heading Pre-emergence, flood test species, visual evaluation after twelve to sixteen days
[7] = Rate 250 g/ha, Pre-emergence, flood-test species, scale 0 to 10, 0 is no effect, 10 is complete control
[8] = Rate 500 g/ha, Pre-emergence, flood test species, scale 0 to 10 (0 no effect, 10 complete control)

Cc1nnsc1Cn1c(=O)on(C(=O)N(c2ccccc2)C(C)C)c1=O [Compound 378]
4: Plant response rating, Giant foxtail (giant foxtail; [3]) | Giant foxtail plant response rating (0 to 10 scale) (giant foxtail; Preemergence, Rate 125 g/ha)
7: Plant response rating, Morningglory (morningglory; [1])
10: Plant response rating, Morningglory (morningglory; [2]) | Plant response rating, Morningglory (morningglory; [4]) | Giant foxtail plant response rating (giant foxtail; Preemergence, Rate 250 g/ha) | Giant foxtail plant response rating (giant foxtail; Preemergence, Rate 500 g/ha)
8: Plant response rating, Giant foxtail (giant foxtail; [4])
0: Plant response rating, Morningglory (morningglory; [3]) | Morningglory plant response rating (0 to 10 scale) (morningglory; Preemergence, Rate 125 g/ha) | Morningglory plant response rating (morningglory; Preemergence, Rate 250 g/ha) | Morningglory plant response rating (morningglory; Preemergence, Rate 500 g/ha) | Plant response rating, Soybean (soybean; [1]) | Plant response rating, Soybean (soybean; [2]) | Plant response rating, Soybean (soybean; [3]) | Soybean plant response rating (0 to 10 scale) (soybean; Preemergence, Rate 125 g/ha) | Soybean plant response rating (soybean; Preemergence, Rate 250 g/ha) | Soybean plant response rating (soybean; Preemergence, Rate 500 g/ha) | Soybean plant response rating (soybean; Rate 62 g/ha, Postemergence) | Plant response rating, B. signalgrass (surinam grass; [1]) | Plant response rating, B. signalgrass (surinam grass; [2]) | Plant response rating, B. signalgrass (surinam grass; [3]) | B. signalgrass plant response rating (0 to 10 scale, 0 is no effect, 10 is complete control) (surinam grass; Preemergence, Rate 125 g/ha) | B. signalgrass plant response rating (surinam grass; Preemergence, Rate 250 g/ha) | B. signalgrass plant response rating (surinam grass; Preemergence, Rate 500 g/ha) | B. signalgrass plant response rating (surinam grass; Rate 62 g/ha, Postemergence) | Plant response rating, Bedstraw (bedstraw; [2]) | Plant response rating, Bedstraw (bedstraw; [3]) | Bedstraw plant response rating (0 to 10 scale) (bedstraw; Preemergence, Rate 125 g/ha) | Bedstraw plant response rating (bedstraw; Preemergence, Rate 250 g/ha) | Bedstraw plant response rating (bedstraw; Preemergence, Rate 500 g/ha) | Plant response rating, Rape (rape; [1]) | Plant response rating, Rape (rape; [2]) | Plant response rating, Rape (rape; [3]) | Rape plant response rating (0 to 10 scale) (rape; Preemergence, Rate 125 g/ha) | Rape plant response rating (rape; Preemergence, Rate 250 g/ha) | Rape plant response rating (rape; Preemergence, Rate 500 g/ha) | Rape plant response rating (rape; Rate 62 g/ha, Postemergence) | Plant response rating, Redroot pigweed (pigweed; [1]) | Plant response rating, Redroot pigweed (pigweed; [2]) | Plant response rating, Redroot pigweed (pigweed; [3]) | Redroot pigweed plant response rating (0 to 10 scale) (pigweed; Preemergence, Rate 125 g/ha) | Redroot pigweed plant response rating (pigweed; Preemergence, Rate 250 g/ha) | Redroot pigweed plant response rating (pigweed; Preemergence, Rate 500 g/ha) | Redroot pigweed plant response rating (pigweed; Rate 62 g/ha, Postemergence) | Plant response rating, Velvetleaf (velvetleaf; [1]) | Plant response rating, Velvetleaf (velvetleaf; [2]) | Plant response rating, Velvetleaf (velvetleaf; [3]) | Velvetleaf plant response rating (0 to 10 scale) (velvetleaf; Preemergence, Rate 125 g/ha) | Velvetleaf plant response rating (velvetleaf; Preemergence, Rate 250 g/ha) | Velvetleaf plant response rating (velvetleaf; Preemergence, Rate 500 g/ha) | Velvetleaf plant response rating (velvetleaf; Rate 62 g/ha, Postemergence) | Plant response rating, Barnyardgrass (0 to 10 scale, 0 is no effect, 10 is complete control) (bamyardgrass; [5]) | Barnyardgrass plant response rating (0 to 10 scale, 0 is no effect, 10 is complete control) (bamyardgrass; [6]) | Barnyardgrass plant response rating (bamyardgrass; [7]) | Barnyardgrass plant response rating (bamyardgrass; [8]) | Plant response rating, Ducksalad (0 to 10 scale, 0 is no effect, 10 is complete control) (duck salad; [5]) | Ducksalad plant response rating (0 to 10 scale, 0 is no effect, 10 is complete control) (duck salad; [6]) | Ducksalad plant response rating (duck salad; [7]) | Ducksalad plant response rating (duck salad; [8]) | Plant response rating, Cocklebur (cocklebur; [1]) | Plant response rating, Cocklebur (cocklebur; [2]) | Plant response rating, Cocklebur (cocklebur; [3]) | Cocklebur plant response rating (0 to 10 scale) (cocklebur; Preemergence, Rate 125 g/ha) | Cocklebur plant response rating (cocklebur; Preemergence, Rate 250 g/ha) | Cocklebur plant response rating (cocklebur; Preemergence, Rate 500 g/ha) | Cocklebur plant response rating (cocklebur; Rate 62 g/ha, Postemergence) | Plant response rating, Corn (corn; [1]) | Plant response rating, Corn (corn; [2]) | Plant response rating, Corn (corn; [3]) | Corn plant response rating (0 to 10 scale) (corn; Preemergence, Rate 125 g/ha) | Corn plant response rating (corn; Preemergence, Rate 250 g/ha) | Corn plant response rating (corn; Preemergence, Rate 500 g/ha) | Corn plant response rating (corn; Rate 62 g/ha, Postemergence) | Plant response rating, Corn (corn; [4]) | Plant response rating, Blackgrass (blackgrass; [1]) | Plant response rating, Blackgrass (blackgrass; [2]) | Plant response rating, Blackgrass (blackgrass; [3]) | Blackgrass plant response rating (0 to 10 scale) (blackgrass; Preemergence, Rate 125 g/ha) | Blackgrass plant response rating (blackgrass; Preemergence, Rate 250 g/ha) | Blackgrass plant response rating (blackgrass; Preemergence, Rate 500 g/ha) | Blackgrass plant response rating (blackgrass; Rate 62 g/ha, Postemergence) | Plant response rating, Sugarbeets (sugar beet; [1]) | Plant response rating, Sugarbeets (sugar beet; [2]) | Plant response rating, Sugarbeets (sugar beet; [3]) | Sugarbeets plant response rating (0 to 10 scale) (sugar beet; Preemergence, Rate 125 g/ha) | Sugarbeets plant response rating (sugar beet; Preemergence, Rate 250 g/ha) | Sugarbeets plant response rating (sugar beet; Preemergence, Rate 500 g/ha) | Sugarbeets plant response rating (sugar beet; Rate 62 g/ha, Postemergence) | Plant response rating, Sugarbeets (sugar beet; [4]) | Plant response rating, Giant foxtail (giant foxtail; [1]) | Giant foxtail plant response rating (giant foxtail; Rate 62 g/ha, Postemergence) | Plant response rating, S. Flatsedge (0 to 10 scale, 0 is no effect, 10 is complete control) (smallflower flatsedge; [5]) | S. Flatsedge plant response rating (0 to 10 scale, 0 is no effect, 10 is complete control) (smallflower flatsedge; [6]) | S. Flatsedge plant response rating (smallflower flatsedge; [7]) | S. Flatsedge plant response rating (smallflower flatsedge; [8]) | Plant response rating, Nutsedge (purple nutsedge; [1]) | Plant response rating, Nutsedge (purple nutsedge; [2]) | Plant response rating, Nutsedge (purple nutsedge; [3]) | Nutsedge plant response rating (0 to 10 scale) (purple nutsedge; Preemergence, Rate 125 g/ha) | Nutsedge plant response rating (purple nutsedge; Preemergence, Rate 250 g/ha) | Nutsedge plant response rating (purple nutsedge; Preemergence, Rate 500 g/ha) | Nutsedge plant response rating (purple nutsedge; Rate 62 g/ha, Postemergence) | Plant response rating, Nutsedge (purple nutsedge; [4])
2: Plant response rating, Soybean (soybean; [4]) | Plant response rating, B. signalgrass (surinam grass; [4]) | Plant response rating, Redroot pigweed (pigweed; [4])
1: Plant response rating, Cocklebur (cocklebur; [4])
3: Plant response rating, Rape (rape; [4]) | Plant response rating, Velvetleaf (velvetleaf; [4]) | Plant response rating, Giant foxtail (giant foxtail; [2])
5: Morningglory plant response rating (morningglory; Rate 62 g/ha, Postemergence)
